Measured values taken from article PMC13352219, “Analysis of glutamine synthetase target‐site mutations and their role in endowing glufosinate‐ammonium resistance” (Pest Management Science, 2026).
pIC50: −log10 of the molar value. Where two headings read alike, the source gives them in different places.

Assays:
[1] = system: Amaranthus palmeri cytosolic GS1.1 R311Q; test: GS enzyme inhibition assay, GS1.1 R311Q; format: biochemical
Procedure: (§1) GS activity was determined spectrophotometrically following the Sigma‐Aldrich enzymatic assay protocol. The reaction couples the ATP‐dependent conversion of L‐glutamate and ammonium to L‐glutamine with pyruvate kinase (PK) and L‐lactate dehydrogenase (LDH), such that oxidation of β‐NADH to β‐NAD^+ can be monitored at 340 nm. Recombinant GS from A. palmeri was expressed in E. coli, purified by affinity chromatography, and quantified by the Bradford method using bovine serum albumin as standard. […] Reaction mixtures were equilibrated to 37°C and initiated by the addition of enzyme, and the decrease in absorbance at 340 nm was recorded for 5–10 min; only the linear portion of the curve was used for activity calculations. […] Activity was calculated using an extinction coefficient for NADH of 6.22 mM^−1 cm^−1 and expressed as units per mg protein, where one unit corresponds to the formation of 1 μmol of L‐glutamine in […] at pH 7.1 and 37 °C. […] Percent inhibition was calculated relative to untreated (positive) and no‐enzyme (negative) controls. […] Resistance factors were calculated by dividing the IC₅₀ of each mutant variant by that of wild‐type GS.

[2] = system: GFA‐resistant E. indica population; design: method as in ref 10 = [10]; 10 Jalaludin A , Ngim J , Bakar BH and Alias Z , Preliminary findings of potentially resistant goosegrass ( Eleusine indica ) to glufosinate ammonium in Malaysia . Weed Biol Manage 10 : 256 – 260 ( 20); conditions: cited from earlier work
[3] = system: Amaranthus palmeri cytosolic GS1.1 R291P; test: GS enzyme inhibition assay, GS1.1 R291P; format: biochemical
Procedure: as §1

[4] = system: Amaranthus palmeri cytosolic GS1.1 V161S; test: GS enzyme inhibition assay, GS1.1 V161S; format: biochemical
Procedure: as §1

[5] = system: Amaranthus palmeri cytosolic GS1.1 E69L; test: GS enzyme inhibition assay, GS1.1 E69L; format: biochemical
Procedure: as §1

[6] = system: Amaranthus palmeri cytosolic GS1.1 S174E; test: GS enzyme inhibition assay, GS1.1 S174E; format: biochemical
Procedure: as §1

[7] = system: Amaranthus palmeri cytosolic GS1.1 G160T; test: GS enzyme inhibition assay, GS1.1 G160T; format: biochemical
Procedure: as §1

[8] = system: Amaranthus palmeri cytosolic GS1.1 K165V; test: GS enzyme inhibition assay, GS1.1 K165V; format: biochemical
Procedure: as §1

[9] = system: Amaranthus palmeri cytosolic GS1.1 WT; test: GS enzyme inhibition assay, GS1.1 WT; format: biochemical; conditions: for pIC50: read-out: Glufosinate‐ammonium IC50
Procedure: GS activity was determined spectrophotometrically following the Sigma‐Aldrich enzymatic assay protocol. The reaction couples the ATP‐dependent conversion of L‐glutamate and ammonium to L‐glutamine with pyruvate kinase (PK) and L‐lactate dehydrogenase (LDH), such that oxidation of β‐NADH to β‐NAD^+ can be monitored at 340 nm. Recombinant GS from A. palmeri was expressed in E. coli, purified by affinity chromatography, and quantified by the Bradford method using bovine serum albumin as standard. Assays were conducted at 37 °C in 3 mL total volume containing 34.1 mM imidazole (pH 7.1), 102 mM sodium L‐glutamate, 8.5 mM ATP, 1.1 mM phosphoenolpyruvate, 60 mM MgCl₂, 18.9 mM KCl, 45 mM NH₄Cl, 0.25 mM β‐NADH, 28 U PK, 40 U LDH, and 0.4–0.8 U recombinant GS. Reaction mixtures were equilibrated to 37°C and initiated by the addition of enzyme, and the decrease in absorbance at 340 nm was recorded for 5–10 min; only the linear portion of the curve was used for activity calculations. For inhibition assays, GFA was added directly to the reaction mixture to final concentrations ranging from 10^−8 M to 10^−2 M, using 2.5‐fold serial dilutions, with a no‐inhibitor control included in each run. Activity was calculated using an extinction coefficient for NADH of 6.22 mM^−1 cm^−1 and expressed as units per mg protein, where one unit corresponds to the formation of 1 μmol of L‐glutamine in […] at pH 7.1 and 37 °C. Background activity was corrected by including blank assays without GS. Percent inhibition was calculated relative to untreated (positive) and no‐enzyme (negative) controls. Assays were conducted in triplicates. IC₅₀ values (concentration of inhibitor reducing GS activity by 50%) were estimated by nonlinear regression (three‐ or four‐parameter log‐logistic models). Resistance factors were calculated by dividing the IC₅₀ of each mutant variant by that of wild‐type GS.

[10] = system: Amaranthus palmeri cytosolic GS1.1 R291L; test: GS enzyme inhibition assay, GS1.1 R291L; format: biochemical
Procedure: as §1

[11] = system: Arabidopsis thaliana plants expressing Amaranthus palmeri GS2.2 G255D; test: Postemergence GFA spray on transgenic Arabidopsis expressing GS2.2 G255D; format: in vivo; conditions: 100, 500 and 1000 g ha^−1 postemergence, listed as GFA
From the text: Mutant GS variants G2.2 G255D from A. palmeri and G254D from Arabidopsis were cloned into the RTP6557 transformation vector, which was subsequently introduced into Agrobacterium tumefaciens strain C58C1pMP90. The construct also carried an acetolactate synthase (ALS) herbicide‐resistance gene as a selectable marker, ensuring that Arabidopsis seedlings tested for resistance to GFA herbicide expressed the transgene.
Arabidopsis plants carrying immature floral buds were transformed by the floral‐dip method, immersing inflorescences for 10 s in the bacterial suspension supplemented with Silwet‐L77 at 0.05% v/v. After dipping, plants were maintained overnight under high humidity and low light, then transferred to long‐day conditions until maturity. Once siliques had yellowed, seeds were harvested into paper bags. T₁ seeds were collected, placed into Falcon tubes, and stored at 4 °C.
After ≥14 d of cold storage, T₁ seeds were sown and stratified as previously described. Transgenic plants were confirmed by PCR detection of the AHAS resistance marker gene. […]
Herbicide treatments were applied at the 10‐leaf stage using a spray chamber calibrated to deliver 375 L ha^−1 of spray solution. […] Herbicide efficacy was visually evaluated 7 d after application.

[12] = system: Amaranthus palmeri cytosolic GS1.1 H249R; test: GS enzyme inhibition assay, GS1.1 H249R; format: biochemical
Procedure: as §1

[13] = system: Amaranthus palmeri cytosolic GS1.1 C159H; test: GS enzyme inhibition assay, GS1.1 C159H; format: biochemical
Procedure: as §1

[14] = system: Amaranthus palmeri cytosolic GS1.1 E131V; test: GS enzyme inhibition assay, GS1.1 E131V; format: biochemical
Procedure: as §1

[15] = system: Amaranthus palmeri cytosolic GS1.1 R311L; test: GS enzyme inhibition assay, GS1.1 R311L; format: biochemical
Procedure: as §1

[16] = target: Amaranthus palmeri cytosolic GS1.1 G245P; test: GS enzyme inhibition assay, GS1.1 G245P; format: biochemical; conditions: read-out: Glufosinate‐ammonium IC50
Procedure: as §1

[17] = read-out: Glufosinate‐ammonium IC50

CP(=O)(O)CCC(N)C(=O)O (stereo not shown) [Glufosinate‐ammonium]
Glufosinate‐ammonium % Inhibition at saturation 10 000 μM ([1]; 10 000 μM): 1.9% | pIC50 [1, 17]: < 2.00 | resistance [2]: up to 20 fold | Glufosinate‐ammonium % Inhibition at saturation 10 000 μM ([3]; 10 000 μM): 0% | pIC50 [3, 17]: < 2.00 | Resistance index (RI) ([4]; IC50 variant / IC50 WT): 1.8 | pIC50 [4, 17]: 4.41 | Resistance index (RI) ([5]; IC50 variant / IC50 WT): 11.4 | pIC50 [5, 17]: 3.61 | Resistance index (RI) ([6]; IC50 variant / IC50 WT): 0.0 | pIC50 [6, 17]: 6.00 | Resistance index (RI) ([7]; IC50 variant / IC50 WT): 18.7 | pIC50 [7, 17]: 3.39 | Resistance index (RI) ([8]; IC50 variant / IC50 WT): 1.5 | pIC50 [8, 17]: 4.48 | Glufosinate‐ammonium % Inhibition at saturation 10 000 μM ([9]; 10 000 μM): 100% | Resistance index (RI) ([9]; IC50 variant / IC50 WT): 1 | pIC50 ([9]; Table 2 panel): 4.65 | pIC50 ([9]; Table 3 panel): 4.66 | Glufosinate‐ammonium % Inhibition at saturation 10 000 μM ([10]; 10 000 μM): 0% | pIC50 [10, 17]: < 2.00 | tolerance to GFA (visual injury) [11]: chlorosis and necrosis comparable to wild‐type controls | Glufosinate‐ammonium % Inhibition at saturation 10 000 μM ([12]; 10 000 μM): 29% | pIC50 [12, 17]: < 2.00 | Resistance index (RI) ([13]; IC50 variant / IC50 WT): 186.5 | pIC50 [13, 17]: 2.39 | Glufosinate‐ammonium % Inhibition at saturation 10 000 μM ([14]; 10 000 μM): 6.6% | pIC50 [14, 17]: < 2.00 | Glufosinate‐ammonium % Inhibition at saturation 10 000 μM ([15]; 10 000 μM): 14% | pIC50 [15, 17]: < 2.00 | pIC50 [16]: 3.61
